Data on 87 molecules can be found in a melting point compilation (Tetko et al.; mined from patent text by program, amines drawn as free bases though some values may be those of a salt).

The melting point is the temperature, or range, at which the solid turns liquid.

Where only a bound is given, the exact number is not on record here.

With `CNS(=O)(=O)CCc1ccc2[nH]ccc2c1`, the melting point fell in the range of 122 to 124 °C. With `CCc1cc(-c2ccccc2)nn1-c1ccc([N+](=O)[O-])cc1`, the melting point fell in the range of 112 to 113 °C. Turning to `Cn1nc(-c2ccc(Cl)cc2)c2c1-c1ccccc1C2`, the melting point amounted to 176 °C.

In turn, `CCCCCCCCCCC[C@@H](C[C@@H]1OC(=O)[C@H]1CCCCCC)OC(=O)[C@H](CC(C)C)NC(=O)OCc1ccccc1` registered a melting point of 43 to 46 °C. In the case of `Cc1nc2ccccc2c2c1OC(C)CN2` (configuration not stated), the melting point fell in the range of 169 to 170 °C. With `CCCn1c(=O)c(C=C(C#N)C#N)c2n(c1=O)CCS2`, the melting point was 135 to 137 °C.

Regarding `Brc1ccn(-c2ccc(-c3ccccc3)cc2)c1`, the melting point lay in the range of 141 to 143 °C. `O=C(CNc1ccc(S(=O)(=O)O)cc1)c1ccccc1` came in with a melting point greater than 300 °C. `COCCNc1sc(-c2cc[nH]n2)c2c1C(=O)CC(C)(C)C2` showed a melting point of 171 to 173 °C. On to `COC(=O)C1OC(c2cc(-c3ncc(C(F)(F)F)cc3Cl)ccc2Cl)OC1C(=O)OC` (configuration not stated), for which the melting point is 48 to 53 °C. Molecule `COc1ccc(CC#N)c(CCNC(C)=O)c1OC` registered a melting point of 134 to 136 °C.

As for `COC(=O)Cc1ccc(OCCNC(=O)C2Cc3ccccc3N2S(=O)(=O)c2ccc(-c3cc(C)ccc3Cl)cc2)cc1` (configuration not stated), the melting point lay within 50 to 53 °C. Consider `O=C(NN=c1[nH]nc(Cl)c2ccccc12)c1ccccc1`, for which the melting point was found to be 162 °C. Regarding `CNC(=O)OC1CCN(C(=O)Oc2ccc(Oc3ccccc3)cc2)CC1`, the melting point was in the range of 117 to 119 °C. In turn, `O=C1Nc2ccccc2C1=C(c1ccc(Cl)cc1)c1ccc(Cl)cc1` showed a melting point of 206 to 208 °C. The result for `CCCCCCNC(=O)Nc1ccccc1C(=O)NC1CCN(C(c2ccccc2)c2ccccc2)CC1` reads 192 to 194 °C; that for `O=C1CN2C(=O)N(c3cc(Cl)nc(Cl)c3)C(=O)[C@@]2(Cc2ccc(OC(F)(F)F)cc2)C1`, 166 °C.

Consider `CC(C)C(=O)Oc1cc(-c2cn3c(n2)sc2ccccc23)cc([N+](=O)[O-])c1OC(=O)C(C)C`, for which the melting point lay within 197 to 199 °C.

Take `COc1ccc(C(C#Cc2ccccc2)CNC(C)=O)cc1OC1CCCC1` (racemic): the melting point lay within 114 to 117 °C. In turn, `O=C(O)c1cc(Cl)cc(OCc2ccccc2)c1` registered a melting point of 127 to 129 °C. Molecule `COC(=O)c1cccc(CN2C(=O)N(c3ccccc3Br)Cc3cnc(Nc4ccccc4)nc32)c1` yielded a melting point of 79 to 82 °C. Regarding `Cc1c(NC(=O)c2ccnc(NCc3ccc(=O)[nH]c3)c2)cccc1C(F)(F)F`, the melting point is 196 to 201 °C. For the molecule `COc1ccccc1Cn1c(=O)[nH]c2cc(Cl)cc(Cl)c2c1=O`, the melting point fell in the range of 143 to 146 °C.

On to `CCCCOC(=O)N[C@@H](CC(N)=O)C(=O)N[C@@H](Cc1ccccc1)[C@H](O)C(=O)N1CCC[C@H]1C(=O)NC(C)(C)C`, for which the melting point is 61 to 65 °C. `Nc1ncnc2c1ncn2C1OC(CS)C(O)C1O` (configuration not stated) gave a melting point of 108 to 109 °C. The result for `CCCCn1c(CCOC)nc2c(N)nc3ccccc3c21` reads 149 to 151 °C; that for `Clc1ccc(Cn2cc(C=Cc3cccnc3)c3cc(OCc4ccc5ccccc5n4)ccc32)cc1`, 169 to 171 °C. In turn, `CCCCNC(=O)N1N=C(c2ccc(N)cc2)c2cc(Cl)ccc2CC1C` (configuration not stated) came in with a melting point of 89 to 91 °C. With `NC(c1ccccc1)c1ccc(O)cc1` (configuration not stated), the melting point was 113 to 115 °C. The result for `CCCCC(=O)N(Cc1ccc(-c2ccccc2-c2nnnn2C(c2ccccc2)(c2ccccc2)c2ccccc2)cc1)C(C(=O)O)C(C)C` (configuration not stated) reads 170 °C. The molecule `CCCCCCCCCCCCCCCCCCOc1ccc(C(=O)C(=O)N(CC(=O)OCC)CC(=O)OCC)cc1` gave a melting point of 63 to 64 °C. The result for `COc1ccccc1OCC1NC(C)(C)C(C(=O)O)S1` (configuration not stated) reads 136 to 138 °C; that for `O=c1oc2ccccc2c(O)c1C1CC(c2ccc(Oc3ccc(-c4ccccc4)cc3)cc2)Cc2ccccc21` (configuration not stated), 124 to 127 °C. The molecule `Cn1ccc2cc(N3Cc4ccc(OCC(F)(F)F)cc4C3=O)ccc21` returned a melting point of 182 to 188 °C. `CC1CCCN1CCN1CCN(CCCN2CCCCC2)C1=C(C#N)C#N` (configuration not stated) came in with a melting point of 84 to 86 °C. Take `CN1C(=O)[C@H](NC(=O)/C=C/c2cccc(Br)c2)N=C(c2ccccc2)c2ccccc21`: the melting point amounted to 221 °C. Under `CC(C)CC(NC(=O)C(CS)CC(F)(F)F)C(=O)O` (configuration not stated) stands 78 to 81 °C.

Take `O=C(NCC12CC3CC(CC(C3)C1)C2)c1cc(-c2cc(F)c(F)cc2C(=O)O)ccc1Cl`: the melting point was 121 to 125 °C. Turning to `CC(=O)N1CC(C)(C)c2cc3[nH]nnc3cc21`, the melting point was 281 to 283 °C.

The molecule `C#CC1(c2ccc(OC(F)F)c(OCC3CC3)c2)CCC(=O)CC1` came in with a melting point of 75 to 77 °C. As to `CCCCC(CC)COc1cccc2c1C(=O)c1cccc(OCC(CC)CCCC)c1C2=O` (configuration not stated), the melting point is 105 °C. For `NC(=O)c1csc2ccc([N+](=O)[O-])cc12`, the melting point was in the range of 243 to 250 °C. For the molecule `O=[PH](c1ccc2ccccc2c1)c1ccc2ccccc2c1`, the melting point was 98.3 °C. Molecule `Cc1ccc(S(=O)(=O)NN=C2CCCCCCCC2)cc1` registered a melting point of 135 to 138 °C.

On to `Cc1cccc(P(=O)(O)c2cccc(C)c2)c1`, for which the melting point is 172 °C. With `O=C(c1ccc([N+](=O)[O-])cc1)N1CCN(CCc2ccc(Cl)cc2)CC1`, the melting point was 109 to 110 °C. In the case of `O=C(N[C@H](Cc1ccc(C(F)(F)F)cc1)[C@@H](O)c1ccc(F)cc1)c1cccc2c1OCC2` (racemic), the melting point is 121 to 122 °C. The result for `CCCCCCCCCCCCCCCNC(=O)OCCOCCOCCOC(=O)N(Cc1ccccn1)C(C)=O` reads 42 to 43 °C. For `O=c1[nH]nnc2sccc12`, the melting point is 175 to 176 °C. The result for `CCCc1c(OCCCCCC(=O)c2ccc3cc(O)c(O)cc3c2)ccc(C(=O)O)c1O` reads 205 to 207 °C. The molecule `Cc1cc(Nc2ccnc(Nc3ccc(S(=O)(=O)N(C)C4CCC(F)(F)CC4)cc3)n2)ccc1F` showed a melting point of 164 to 165 °C. The result for `COc1cccc(C2(O)CCN(C)CC2)c1` reads 111 to 113 °C; that for `CC1NC(=O)Nc2ccc(C(=O)CBr)cc21` (configuration not stated), 188 to 190 °C; that for `CC(CCl)N1C(=O)N(c2ccc(Cl)cc2)CC1C` (configuration not stated), 70 to 72 °C. `COC(=O)c1cc(Br)c(C#N)s1` came in with a melting point of 102 to 103 °C. Take `CCCCOCCOc1ccc(-c2ccc3c(c2)C=C(C(=O)Nc2ccc(C(O)c4ccccn4)c(C)c2)CCN3C(=O)C(F)(F)F)cc1` (configuration not stated): the melting point was 122 to 125 °C. Regarding `Cc1ncsc1C(C)(O)c1cccs1` (configuration not stated), the melting point lay within 146 to 148 °C. As to `COC(=O)CCCOc1cc([N+](=O)[O-])c(C(C)NC(=O)C(F)(F)F)cc1OC` (configuration not stated), the melting point fell in the range of 156 to 157 °C. In turn, `COc1cc(CCNC(=O)C(NC(=O)OC(C)(C)C)C(C)C)ccc1OCC#Cc1ccc(Cl)cc1` (configuration not stated) yielded a melting point of 141 to 142 °C. The molecule `C=C(C)COc1ccc(Cl)cc1CN(CC)c1ccc(C(=O)O)nn1` came in with a melting point of 130 to 131 °C. `FC(F)(F)c1ccc(CN2CC3(COc4cc5c(cc43)CCO5)c3c(-c4cncnc4)cccc32)o1` (configuration not stated) yielded a melting point of 263 to 266 °C. On to `CCC=CCn1c(=O)sc2c(=O)n(C)c(N)nc21`, for which the melting point fell in the range of 184 to 187 °C.

Molecule `CS(=O)(=O)Nc1cccc(C(=O)NCCN2CCC(Oc3ccc(Cl)c(Cl)c3)CC2)c1` yielded a melting point of 150 to 151 °C. Take `COC(=O)c1ccc2nc(-c3ccc(C(C)(C)C)cc3)[nH]c2c1`: the melting point came out at 152 °C. Under `Cc1[nH]cnc1CSCCNC(=S)NC#N` stands 158 to 161 °C; under `COC(COC(C)=O)C1=CCC2C3CCC4=CC(=O)CCC4(C)C3CCC12C` (configuration not stated), 115 to 157 °C; under `CCCCOc1c(N(C)C(=O)OC(C)(C)C)n(CC2CC2)c(=O)c2ccc(OCC(N)=O)cc12`, 209 to 210 °C. The result for `CN(CCF)c1nc2cc(NC(=O)c3c(C(=O)N4CCOCC4)cnn3C)ccn2n1` reads 144 to 145 °C; that for `Cc1nsc(CCCOc2c(C)cc(-c3noc(C)n3)cc2C)n1`, 67 to 71 °C. `COCCNc1nc(-n2ccnc2)nc2ccc(CO)cc12`: the melting point was 165 to 168 °C. The result for `O=S1(=O)c2ccccc2NC2CCCN21` (configuration not stated) reads 149 to 154 °C; that for `Nc1nc(N)c2cc(Cc3ccc4ccccc4c3)ccc2n1`, 256 to 257 °C; that for `Cc1ccccc1Oc1cccc2c1OC(=O)C2N1C(=O)c2ccccc2C1=O` (configuration not stated), 168 to 170 °C.

Take `O=C(CCc1cnoc1-c1ccccc1)Nc1ccc2ccccc2n1`: the melting point lay within 112 to 113 °C. Take `O=C1CCC(=O)C(Cc2ccccc2)N1` (configuration not stated): the melting point was in the range of 140 to 141 °C. Under `COc1ccc(-n2nc(O)c3c(=O)c4ccc(Cl)cc4[nH]c3c2=O)cc1` stands 371 to 373 °C; under `CSc1nc2cc3c(cc2[nH]1)NC(=O)C3(C)C`, 248 to 250 °C. For `CC(=O)NCCCCC(NC(C)=O)C(=O)O` (racemic), the melting point was 138 to 139 °C.

For the molecule `COc1cc(C(=O)OCC2(N(C)C)CCCc3sccc32)cc(OC)c1OC` (configuration not stated), the melting point is 82 to 83 °C.

Molecule `COc1cccc2cc(CN(C)CCNC(=O)C34CC5CC(CC(C5)C3)C4)oc12` had a melting point of 156 to 158 °C. On to `COc1cc(-c2ccccc2F)c(Cl)cc1C(=O)N1Cc2ccc(C(=O)N(CC(O)CO)CC(O)C(O)CO)n2Cc2ccccc21` (configuration not stated), for which the melting point was 192 to 194 °C. Molecule `NC(=O)N(O)CC=Cc1ccccc1Sc1ccc(Cl)cc1` displayed a melting point of 126 to 128 °C.

In turn, `NC(Cc1cccc2cccc(Br)c12)=NO` yielded a melting point of 123 to 125 °C. The result for `COc1cccc(N2C(CO)=Cc3cc(S(N)(=O)=O)sc3S2(=O)=O)c1` reads 180 to 182 °C. `C=CCOC(=O)c1ccc(C(=O)SCc2ccc3c(c2)C(C)(C)CCC3(C)C)cc1` gave a melting point of 79 to 80 °C. In turn, `COC(=O)c1cn2c(=O)c(C)c(C)nc2s1` displayed a melting point of 158 to 159 °C. The result for `NCC1Cc2c(C(F)(F)F)ccc(Cl)c2O1` (configuration not stated) reads greater than 250 °C.
